# Measurements published in patent US20110098177A1, “METHODS AND COMPOSITIONS OF PLANT MICRONUTRIENTS” (NOVUS INTERNATIONAL INC., priority 2006, published 2011).
# Read-outs that look alike come from different tables or passages of the source. Marks after values point to notes of the source that are not given here.
# Assays:
# Assay type in all cases: in vivo
# [1] = tested on: Tygress tomato plants; assay: Yields of tomato fruits, greenhouse spring 2009 (Examples 13-15)
# Experimental: (§1) The following experiments were performed in a green house during the spring of 2009 at GCREC, Balm, University of Florida. Crop set-up, procedures and variables were as follows.
# (§2) Transplants of ‘Tygress’ tomato plants were planted in 2-gallon pots filled with commercial planting medium with nutrient concentration of Fe, Zn, Mn, Cu being negligible and insufficient for crop growth. Irrigation and non-micronutrient fertilizer were provided daily through microsprinklers at recommended rates for tomato production in Florida. No pesticides were used. Treatments were as described in Tables 42, 43, and 44 below. BIOX-Cu was compared to Cu-sulfate, BIOX-EDC, and BIOX-O; and BIOX-Fe was compared to Fe-sulfate and BIOX-EDF. BIOX-MEZ is Ca-HMTBA.
# (§3) Treatments were applied at 6 WAT (weeks after transplanting) using a water volume of 200 mL/plant. Deionized water was used for foliar applications. A non-ionic surfactant was added. Other nutrients were applied as appropriate under non-limiting conditions.
# Marketable fruit were collected three times during the growing season, starting at 10 WAT (4 weeks after the initial treatment). Tomato fruit was graded as marketable and non-marketable. Marketable fruit was sized as extra-large, large, and medium. Non-marketable fruit were harvested and number and weight recorded but not sized.
# (§4) Experimental design was a randomized complete block design with 6 replications. Data were analyzed using a general linear model, and means were separated using an LSD test at the 5% significance level.
# [2] = tested on: Florida-47 tomato; assay: Marketable yield per plant, greenhouse Fall 2007, tomato
# Experimental: (§5) The following experiments were performed in a green house during the fall of 2007 at GCREC, Balm, University of Florida. Fifteen products, at 3 different application rates were examined. The plot size was 2-gallon pots. Crop set-up, procedures and variables were as follows.
# (§6) Transplants of ‘Florida-47’ tomato and ‘Aristotle’ bell pepper plants in the 4-true leaf stage (about 6 inches tall) were planted in 2-gal pots on Aug. 27, 2007. Pots were filled with a commercially available planting medium. This medium was selected based on the mineral composition of the products to be applied without providing significant nutritional inputs to the crops. Irrigation was provided with drip lines delivering between 0.50 and 0.33 gal/day/pot for tomato and bell pepper, respectively, and the crops were irrigated three times per day. No foliar pesticides were necessary.
# (§7) There were four control treatments corresponding to each target micronutrient in which non-Fe, non-Mn, non-Zn or non-Cu pots received all other essential nutrients under non-limiting conditions.
# (§8) Treatments were applied at three rates (high, medium and low) obtained from the estimated concentration of Zn, Fe, Cu, and Mn foliarly-applied in tomato and bell pepper in field situations (Table 1). Products were weighed and dissolved in 200 ml of deionized water with a non-ionic surfactant and applied to the newly-matured open leaves of each crop at 3 and 7 weeks after transplant (WAT). Treated pots were isolated during application to avoid cross-contamination of other treatments.
# (§9) Medium nutrient concentration was determined 1 week before treatment. The mineral composition of the medium was 26.8 ppm NH4—N, 49 ppm NO3—N, 15.8 ppm P, 91.2 ppm K, 82.3 ppm Ca, 58.2 ppm Mg, 23.9 ppm Na, 125.6 ppm S, 1.33 ppm Fe, 0.39 ppm Mn, 0.35 ppm Zn, 0.05 pp, Cu, 0.04 ppm B, 0 ppm Mo, 0.73 ppm Al, and 12.1 ppm Si. The pH of the medium was 5.36 and the electric conductivity was 1.38 mS/cm. The foliar tissue analysis was performed at 6 WAT and the concentration of N, P, K, Mg, Ca, S, B, Zn, Mn, Fe, and Cu was determined by a commercial laboratory. Plant toxicity was determined at 4 WAT by using a 0-10 visual scale, where 0=no visible damage and 10=total plant death. Marketable fruit weight was collected 2 times in bell pepper and 4 times in tomato following USDA standards.
# (§10) Data were analyzed using a general linear model, and means were separated using orthogonal contrasts at the 5% significance level.
# [3] = tested on: Aristotle bell pepper; assay: Marketable yield per plant, greenhouse Fall 2007, bell pepper
# Experimental: as §5, §6, §7, §8, §9, §10
# [4] = tested on: Tygress tomato plants; conditions: for Toxicity (0-10): 0=no injury, 10=plant death
# Experimental: as §1, §2, §3
# Toxicity of the treatments was assessed by rating foliar tissue using a visual scale, where 0=no injury and 10=plant death.
# as §4
# [5] = tested on: Tygress tomato plants; assay: Foliar nutrient concentration at 7 WAT, greenhouse tomato spring 2009 (Examples 13-15); conditions: 7 WAT
# Experimental: as §1, §2, §3
# Foliar tissue nutrient analysis was performed at 3 WAT (i.e., 3 weeks before treatment) and 7 WAT (i.e., 1 weeks after treatment) on the non-applied newest leaves. The concentrations of N, P, K, Mg, Ca, B, Zn, Mn, Fe, and Cu in the foliar tissue were determined by a commercial laboratory. There were no significant differences between the foliar nutrient concentrations of any of the treatment groups prior to treatment.
# as §4
# [6] = tested on: Aristotle bell pepper; conditions: 1 week after treatment, scale 0 = no visible injury, 10 = plant death
# How it was run: (§11)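 Florida-47 tomato and Aristotle bell pepper transplants in 2-gal pots with low-nutrient medium (pH 5.36), drip-irrigated; products at three rates in deionized water plus non-ionic surfactant sprayed on newly matured leaves at 3 and 7 WAT. Toxicity scored at 4 WAT (0=no damage, 10=death); foliar tissue analysed at 6 WAT; marketable fruit harvested 4 times (tomato).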
# [7] = tested on: Florida-47 tomato; conditions: 1 week after treatment, scale 0 = no visible injury, 10 = plant death
# How it was run: as §11
# [8] = foliar application at 3 and 7 WAT, rates not separated
smiles,measurement,setting,value
"CSCCC(O)C(=O)[O-].CSCCC(O)C(=O)[O-].[Ca+2] (stereo not shown) [BIOX-MEZ, Ca-HMTBA]",Marketable yield,[1]; 0.6 lb/acre,1100 g/plant
same,Marketable yield,[1]; 1.2 lb/acre,875 g/plant
same,Marketable yield,[1]; 2.5 lb/acre,925 g/plant
same,Marketable yield,[1]; 4.8 lb/acre,1000 g/plant
same,Marketable yield,[1]; 7.2 lb/acre,900 g/plant
same,"Marketable or non-marketable yields, statement",[1]; BIOX-MEZ treatment,no change in marketable or non-marketable yields
same,"Marketable yield per plant, Tomato",[2]; [8],3.0* lb/plant
same,Tomato yield compared with control (in words),"[2]; foliar applications, P<0.05",significantly increased
same,"Marketable yield per plant, Pepper",[3]; [8],3.2* lb/plant
same,Bell pepper yield compared with control (in words),"[3]; foliar applications, P<0.05",significantly increased
same,Toxicity (0-10),[4]; 0.6 lb/acre,0
same,Toxicity (0-10),[4]; 1.2 lb/acre,0
same,Toxicity (0-10),[4]; 2.5 lb/acre,1
same,Toxicity (0-10),[4]; 4.8 lb/acre,1
same,Toxicity (0-10),[4]; 7.2 lb/acre,1
same,"Toxic effects on the tomato plants, statement",[4]; BIOX-MEZ application,no major toxic effects
same,Nutrient concentration in tomato leaves: Ca,[5]; 0.6 lb/acre,1.3 b %
same,Nutrient concentration in tomato leaves: K,[5]; 0.6 lb/acre,3.8%
same,Nutrient concentration in tomato leaves: Mg,[5]; 0.6 lb/acre,0.6%
same,Nutrient concentration in tomato leaves: N,[5]; 0.6 lb/acre,3.8%
same,Nutrient concentration in tomato leaves: P,[5]; 0.6 lb/acre,0.6%
same,Nutrient concentration in tomato leaves: Ca,[5]; 1.2 lb/acre,1.3 b %
same,Nutrient concentration in tomato leaves: K,[5]; 1.2 lb/acre,4.4%
same,Nutrient concentration in tomato leaves: Mg,[5]; 1.2 lb/acre,0.6%
same,Nutrient concentration in tomato leaves: N,[5]; 1.2 lb/acre,4.2%
same,Nutrient concentration in tomato leaves: P,[5]; 1.2 lb/acre,0.7%
same,Nutrient concentration in tomato leaves: Ca,[5]; 2.5 lb/acre,1.3 b %
same,Nutrient concentration in tomato leaves: K,[5]; 2.5 lb/acre,3.9%
same,Nutrient concentration in tomato leaves: Mg,[5]; 2.5 lb/acre,0.5%
same,Nutrient concentration in tomato leaves: N,[5]; 2.5 lb/acre,4.4%
same,Nutrient concentration in tomato leaves: P,[5]; 2.5 lb/acre,0.7%
same,Nutrient concentration in tomato leaves: Ca,[5]; 4.8 lb/acre,1.2 b %
same,Nutrient concentration in tomato leaves: K,[5]; 4.8 lb/acre,3.9%
same,Nutrient concentration in tomato leaves: Mg,[5]; 4.8 lb/acre,0.6%
same,Nutrient concentration in tomato leaves: N,[5]; 4.8 lb/acre,3.8%
same,Nutrient concentration in tomato leaves: P,[5]; 4.8 lb/acre,0.6%
same,Nutrient concentration in tomato leaves: Ca,[5]; 7.2 lb/acre,1.7 a %
same,Nutrient concentration in tomato leaves: K,[5]; 7.2 lb/acre,4.6%
same,Nutrient concentration in tomato leaves: Mg,[5]; 7.2 lb/acre,0.6%
same,Nutrient concentration in tomato leaves: N,[5]; 7.2 lb/acre,4.7%
same,Nutrient concentration in tomato leaves: P,[5]; 7.2 lb/acre,0.7%
same,"Foliar Ca concentration, statement",[5]; BIOX-MEZ at a rate of 7.2 lb/acre,significantly increased
same,"Foliar levels of N, P, K, and Mg, statement",[5]; BIOX-MEZ treatment,not affected
same,Pepper toxicity,[6]; High rate,0
same,Pepper toxicity,[6]; Low rate,0
same,Pepper toxicity,[6]; Medium rate,0
same,Tomato toxicity,[7]; High rate,0
same,Tomato toxicity,[7]; Low rate,0
same,Tomato toxicity,[7]; Medium rate,0
